Measured values as given in patent US20250127804A1, “RIBOSE LINKERS AND CONJUGATES THEREOF” (ELYSIUM HEALTH INC., priority 2022, published 2025).
“And” between values parts separate entries of the source, which are not always exact repeats. Identical values can stand only once. “Also recorded” adds a separate entry of the source. Like-named read-outs stand apart in the source and are kept apart here.

Columns and labels:
[1] = system: purine nucleoside phosphorylase (PNP); test: PNP enzyme activity assay (release of NAM monitored by 1H NMR); format: in vitro ADME; details: for stability to PNP (in words): triflates dissolved in DMSO; for overall trend of stability of NR esters to PNP: rank order; for ester hydrolysis / deprotection observed during PNP incubation: over time
Protocol: To ensure that the stability rather than the solubility could be investigated, both the triflate and the chloride form of NRLR (“NRLR-OTf” and “NRLR-Cl”, respectively) were tested for their stability in aqueous buffers and as substrates of the enzyme purine nucleoside phosphorylase (PNP). The release of nicotinamide (NAM) was measured, which is indicative of water-catalyzed hydrolysis. Further, the release of ribose vs. phosphoriboside was monitored, which is indicative of PNP activity. Loss of esters via hydrolysis in buffer catalyzed condition also occurs over time. Once the C5-hydroxyl is free, PNP recognizes the nucleoside and catalyze phosphorolysis. It is not known whether this hydrolysis must occur for all the esters before PNP can act on the nucleoside. The scheme below illustrates the reaction with a partially deprotected nucleoside.
Phosphorolysis of NRCl by PNP (Sigma Aldrich) was performed in HEPES buffer, containing KH2PO4 and 10% D2O at 25° C. and was monitored by 1H NMR.
Incubations were conducted in the NMR tube which contained a final volume of 505 μl including 450 μl HEPES buffer (100.0 mM, pH 7.0), containing 100 mM KH2PO4, 50.0 μl NRCl (100.0 mM in 1 mL D2O) and when appropriate 5 μl PNP (1 mg dissolved in 50 μl HEPES buffer) was added and measurements were taken at t=5 min and 15 min.
Similarly, PNP study of NRAD-triflate was conducted in DMSO.

[2] = Octanol-water partition coefficient (Pow) by 1H NMR; format: physicochemical
Protocol: The experiment was performed as described in “Measuring Lipophilicity with NMR,” SpinSolve Carbon®, MagriTek (2014). Briefly, ^1H NMR spectra were recorded for NRLR-Cl in D2O, then an equivalent volume of 1-octanol was added to the same NMR tube, and the ^1H NMR was recorded again. The measurements were performed in triplicate. The Pow was calculated based on the concentrations of the NRLR-Cl in the D2O layer and in the octanol layer, as determined based on the NMR peak values. The average measured log POW of NRLR-Cl is 1.816.

[3] = Solubility in water; format: physicochemical
[4] = system: enhanced lipase (Candida rugens); test: Lipase assay; format: in vitro ADME
Protocol: NRLR was subjected to a lipase assay in 10% DMSO, 450 μL HEPES buffer, and enhanced lipase (Candida rugens).

[5] = 1-octanol/D2O, single experiment, listed as NRLR-CI

NC(=O)c1ccc[n+]([C@@H]2O[C@H](CO)[C@@H](O)[C@H]2O)c1 [NRCl, Nicotinamide riboside, reference compound]
stability to PNP (in words) ([1]; 1H NMR): least stable to PNP enzyme | time to complete conversion/degradation to NAM after PNP addition ([1]; HEPES buffer pH 7.0, KH2PO4, 10% D2O, 25° C., 1H NMR, listed as NR): ≤ 5 min | overall trend of stability of NR esters to PNP [1]: NRTA>NRAD>NRML>NRLR>NRCl

CCCCCCCCCCCC(=O)OC[C@H]1O[C@@H]([n+]2cccc(C(N)=O)c2)[C@H](OC(C)=O)[C@@H]1OC(C)=O [NRLR-Cl, NRLR-Chloride]
Average (LogPow) ([2]; 1-octanol/D2O, average of triplicate): 1.816 | logP ([2]; 1-octanol/D2O, average of triplicate, read-out: Average (LogPow)): 1.82 | LogPow [2, 5]: 1.89 and 1.80 and 1.76 | Pow [2, 5]: 78.66 and 63.33 and 58.88 | Peak values in water layer ([2]; 1H NMR in D2O before octanol addition, listed as NRLR-CI): 0.0478 and 0.0386 and 0.0539 | Peak values after octanol addition ([2]; 1H NMR, D2O layer after equivalent volume of 1-octanol, listed as NRLR-CI): 0.0006 and 0.0009 | solubility in water [3]: soluble in water

CC(=O)OC[C@H]1O[C@@H]([n+]2cccc(C(N)=O)c2)[C@H](OC(C)=O)[C@@H]1OC(C)=O [NRTA, NR triacetate, reference compound]
stability to PNP (in words) ([1]; 1H NMR): stable to PNP; also recorded: more stable to PNP than NRCL | hydrolysis and NAM release with PNP ([1]; after 24 hours): very slowly hydrolyzed and releases NAM | ester hydrolysis / deprotection observed during PNP incubation ([1]; 1H NMR): Slow partial ester hydrolysis | overall trend of stability of NR esters to PNP [1]: NRTA>NRAD>NRML>NRLR>NRCl

CC(=O)O[C@@H]1[C@H](OC(C)=O)[C@@H](COC(=O)CC(=O)OC[C@H]2O[C@@H]([n+]3cccc(C(N)=O)c3)[C@H](OC(C)=O)[C@@H]2OC(C)=O)O[C@H]1[n+]1cccc(C(N)=O)c1 [compound 8a, NR malonate]
stability to PNP (in words) ([1]; 1H NMR): less stable compared to NR adipate | remaining NR diester peaks ([1]; PNP, after 2 days (FIG. 40B)): still showed some NR diester peaks | overall trend of stability of NR esters to PNP [1]: NRTA>NRAD>NRML>NRLR>NRCl

CC(=O)O[C@@H]1[C@H](OC(C)=O)[C@@H](COC(=O)CCCCC(=O)OC[C@H]2O[C@@H]([n+]3cccc(C(N)=O)c3)[C@H](OC(C)=O)[C@@H]2OC(C)=O)O[C@H]1[n+]1cccc(C(N)=O)c1 [compound 8d, NR adipate]
stability to PNP (in words) ([1]; 1H NMR): appears stable to PNP | remaining NR diester peaks ([1]; PNP, after 2 days (FIG. 40B)): still showed some NR diester peaks | ester hydrolysis / deprotection observed during PNP incubation ([1]; 1H NMR): ester dimer appeared to remain intact | overall trend of stability of NR esters to PNP [1]: NRTA>NRAD>NRML>NRLR>NRCl

NR-laurate (NRLR) triflate [compound 8g]
stability to PNP (in words) ([1]; 1H NMR): less stable compared to NR adipate | increase in NAM ([1]; PNP, after 1 day (FIG. 40A)): 30% | degraded to NAM ([1]; PNP, after 2 days (FIG. 40B)): ~90% | overall increase in NAM ([1]; PNP, over 24 hours): 17% | ester hydrolysis / deprotection observed during PNP incubation ([1]; 1H NMR): partial deprotection of the esters over time | overall trend of stability of NR esters to PNP [1]: NRTA>NRAD>NRML>NRLR>NRCl | partial loss of one ester [4]: < 5% | effect of increased concentration of lipase ([4]; over 12 hours of incubation): no effect | solubility in water [3]: not completely soluble in water | solubility in water ([3]; listed as NRLR-OTf): is not
